Measurements from the Kinase Knowledgebase extract (Sharma et al. 2016).

Each molecule was assayed against ROCK2 (human) (UniProt O75116) (assay: Assessment of ROCK2 Kinase Activity).
Chain of ROCK2 (human) (O75116 whole entry, looked up): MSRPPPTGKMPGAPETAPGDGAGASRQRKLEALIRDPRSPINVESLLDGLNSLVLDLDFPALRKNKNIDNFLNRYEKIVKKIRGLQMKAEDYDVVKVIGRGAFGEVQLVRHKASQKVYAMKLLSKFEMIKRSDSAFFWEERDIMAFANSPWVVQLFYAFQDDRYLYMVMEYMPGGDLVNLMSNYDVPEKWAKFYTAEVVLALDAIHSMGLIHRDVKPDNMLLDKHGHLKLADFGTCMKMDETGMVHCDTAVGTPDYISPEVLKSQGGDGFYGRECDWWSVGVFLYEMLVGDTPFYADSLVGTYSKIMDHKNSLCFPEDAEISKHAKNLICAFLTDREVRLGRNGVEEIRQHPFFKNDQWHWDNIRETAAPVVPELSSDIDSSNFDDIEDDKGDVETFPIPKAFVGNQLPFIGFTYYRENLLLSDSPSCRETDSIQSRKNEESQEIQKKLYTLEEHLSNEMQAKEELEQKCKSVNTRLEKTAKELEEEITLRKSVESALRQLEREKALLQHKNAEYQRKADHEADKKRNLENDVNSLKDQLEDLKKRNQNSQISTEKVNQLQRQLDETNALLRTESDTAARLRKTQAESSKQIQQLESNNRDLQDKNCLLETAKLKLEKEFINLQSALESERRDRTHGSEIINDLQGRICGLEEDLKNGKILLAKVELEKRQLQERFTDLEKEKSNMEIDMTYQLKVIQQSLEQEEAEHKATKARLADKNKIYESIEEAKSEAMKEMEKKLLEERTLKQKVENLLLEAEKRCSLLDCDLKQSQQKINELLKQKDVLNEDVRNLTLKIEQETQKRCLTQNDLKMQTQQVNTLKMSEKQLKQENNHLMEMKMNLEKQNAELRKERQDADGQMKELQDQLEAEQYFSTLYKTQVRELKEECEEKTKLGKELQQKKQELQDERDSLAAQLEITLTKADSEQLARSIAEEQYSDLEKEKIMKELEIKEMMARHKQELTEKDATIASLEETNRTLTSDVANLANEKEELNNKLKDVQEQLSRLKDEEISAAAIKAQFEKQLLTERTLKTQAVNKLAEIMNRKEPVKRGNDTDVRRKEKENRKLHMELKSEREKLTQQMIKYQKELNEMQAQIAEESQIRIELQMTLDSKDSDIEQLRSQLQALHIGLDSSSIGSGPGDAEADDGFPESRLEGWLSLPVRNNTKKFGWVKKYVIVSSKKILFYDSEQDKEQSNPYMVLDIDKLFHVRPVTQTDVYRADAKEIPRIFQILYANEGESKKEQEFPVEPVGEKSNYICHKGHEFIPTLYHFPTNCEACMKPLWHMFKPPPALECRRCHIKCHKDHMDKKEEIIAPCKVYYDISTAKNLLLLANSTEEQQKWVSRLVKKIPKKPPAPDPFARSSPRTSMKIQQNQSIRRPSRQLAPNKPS
`O=c1[nH]ccc2cc(N[C@H]3CCN(Cc4ccc5ccccc5c4)C3)ccc12` showed an IC50 of at most 1000 nM. In the case of `O=c1[nH]ccc2cc(SC3CCNCC3)c(Cl)cc12`, the IC50 is reported as at most 1000 nM. `O=c1[nH]ccc2cc(N[C@@H]3CCCN(Cc4ccc5ccccc5c4)C3)ccc12` gave an IC50 of at most 1000 nM. With `Cc1ccc(CN2CC[C@H](Nc3ccc4c(=O)[nH]ccc4c3)C2)cc1` the IC50 was at most 1000 nM. Work on `O=c1[nH]ccc2cc(N[C@H]3CCN(CC4CC4)C3)ccc12` yielded an IC50 of at most 1000 nM. In the case of `O=c1[nH]ccc2cc(NC3CN(Cc4ccccc4Cl)C3)ccc12`, the IC50 is reported as at most 1000 nM. Molecule `Clc1cc2cnccc2cc1SC1CCCNC1` (stereo not given) has an IC50 of at most 1000 nM. `O=c1[nH]ccc2cc(N[C@@H]3CCCN(Cc4ccccc4)C3)ccc12` was tested, and the IC50 was at most 1000 nM. Work on `O=c1[nH]ccc2cc(S(=O)(=O)C3CCNCC3)c(Cl)cc12` yielded an IC50 of at most 1000 nM. For `CC(C)CCN1CCC[C@@H](Nc2ccc3c(=O)[nH]ccc3c2)C1`, the IC50 was at most 1000 nM. For `O=c1[nH]ccc2cc(N[C@H]3CCN(Cc4cccc(Cl)c4F)C3)ccc12`, the IC50 was at most 1000 nM. With `CCCc1cc2cnccc2cc1SC1CCNCC1` the IC50 was at most 1000 nM. For `CCCCN1CCC[C@@H](Nc2ccc3c(=O)[nH]ccc3c2)C1`, the IC50 was at most 1000 nM. For `Brc1cc2cnccc2cc1SC1CCCNCC1` (stereo not given), the IC50 was at most 1000 nM. Molecule `O=c1[nH]ccc2cc(NC3CN(Cc4cccc(Cl)c4F)C3)ccc12` has an IC50 of at most 1000 nM.
